Assay results from patent US20110207793A1, “1-AMINOCYCLOHEXANE DERIVATIVES FOR THE TREATMENT OF SLEEP DISORDERS” (priority 2008, published 2011).

Experiments:
[1] = test system: subjects with subjective tinnitus of at least moderate severity; assay: Double-blind placebo-controlled pilot trial of neramexane in tinnitus: question 12/5 (sleep item) of the structured tinnitus interview; format: in vivo, human; conditions: for TI Sleep item 12/5: Prevented (%) / TI Sleep item 12/5: Prevented n / TI Sleep item 12/5: affected (%) / TI Sleep item 12/5: affected n / TI Sleep item 12/5: no effect (%) / TI Sleep item 12/5: no effect n: ITT-OC
Protocol: (§1) The objective of this pilot project was to conduct a clinical trial to assess the efficacy of neramexane as a treatment for tinnitus. The primary objective of this study was to compare the efficacy, tolerability and safety of neramexane mesylate at three different dosages (25, 50 or 75 mg/d) with placebo in subjects with subjective tinnitus of at least moderate severity.
(§2) In a double-blind, multicenter, randomized, placebo-controlled, parallel-group study, the efficacy of neramexane in subjects suffering from tinnitus of at least moderate severity was assessed. Approximately 100 patients, who fulfilled particular inclusion criteria and met none of particular exclusion criteria, were randomized to each of four double-blind treatment groups (neramexane mesylate 25, 50, 75 mg/d or placebo), resulting in approximately 400 patients in total.
The double-blind, 16-week treatment period consisted of a 4-week uptitration period and a 12-week fixed-dose treatment period at unchanged maintenance b.i.d. dosing. In case of poor tolerability, however, the investigator could consider a dose reduction by 25 mg/d (or placebo, respectively). After the treatment phase, there was a 4-week follow-up period with no active treatment and concomitant therapy restrictions. In total, this study involved seven study visits: screening, baseline, and at the end of weeks 4, 8, 12, 16, and 20.
Visit 2 (baseline): The subject was asked about adverse events and changes in concomitant medication/disease, which events/changes were documented. The subject was evaluated for study eligibility based on a review of the inclusion/exclusion criteria. Trial procedures as well as allowed and forbidden concomitant medications were reviewed with the subject. An initial Tinnitus Interview was conducted. The subject also completed a TBF-12, HADS-D Questionnaire and GÜF Questionnaire (if applicable). The subject was enrolled in the study and study medication (placebo or neramexane) was dispensed as described below.
Visit 6 (Week 16, end of treatment). This visit occurred at the end of the 12-week fixed-dose double-blind treatment period. The subject was asked about adverse events and changes in concomitant medication/disease, which changes are documented. A clinical laboratory evaluation was performed. A follow-up Tinnitus Interview was conducted, and the subject completed a TBF-12, HADS-D Questionnaire and GÜF Questionnaire (if applicable). Pure-tone audiometry (air conduction) was also conducted.
Visit 7 (Week 20): This visit occurred at the end of the 4-week follow-up period after the last study medication dose. Review of concomitant medications as well as the occurrence of adverse events since the last visit is conducted with subject. A follow-up Tinnitus Interview was conducted, and the subject completed a TBF-12, HADS-D Questionnaire and GÜF Questionnaire (if applicable).
Neramexane mesylate immediate release tablets (12.5 mg and 25 mg) and matching placebo tablets were administered as film coated tablets.
Study medication was dispensed at Visit 2 (baseline, day, 0). Each patient received one blister box containing 5 blister cards (including one reserve blister) of double-blind study medication (i.e., 32 tablets). Subjects were instructed to take 2 tablets twice daily (4 tablets/d), beginning the day after dispensing of the study medication, until they returned for their next study visit (Visit 3). For those subjects assigned to receive active medication, some placebo tablets were incorporated into the dosing regimen to ensure blinding during the uptitration period. The target fixed-maintenance dose of 25, 50, or 75 mg neramexane mesylate/d was administered starting with the fifth week of double-blind treatment and was continued throughout the study. […]

[2] = test system: subjects with subjective tinnitus of at least moderate severity; assay: Double-blind placebo-controlled pilot trial of neramexane in tinnitus: TBF-12; format: in vivo, human; conditions: final daily doses of 50 or 75 mg, after 16-week double-blind treatment (Visit 6); distinct from placebo or low-dose (25 mg)
Protocol: as §1, §2
The double-blind, 16-week treatment period consisted of a 4-week uptitration period and a 12-week fixed-dose treatment period at unchanged maintenance b.i.d. dosing. In case of poor tolerability, however, the investigator could consider a dose reduction by 25 mg/d (or placebo, respectively). […]
Visit 1 (screening): After signing the consent form, the subject underwent a physical examination and clinical laboratory testing. Patient eligibility for the study was evaluated via a check of inclusion/exclusion criteria. […]

[3] = molecular target: alpha9/alpha10 nicotinic receptor (Rattus norvegicus, UniProt P43144+Q9JLB5); conditions: Plazas, et al., Eur J Pharmacol., 2007; cited from earlier work
Sequence of alpha9/alpha10 nicotinic receptor (P43144 26-479): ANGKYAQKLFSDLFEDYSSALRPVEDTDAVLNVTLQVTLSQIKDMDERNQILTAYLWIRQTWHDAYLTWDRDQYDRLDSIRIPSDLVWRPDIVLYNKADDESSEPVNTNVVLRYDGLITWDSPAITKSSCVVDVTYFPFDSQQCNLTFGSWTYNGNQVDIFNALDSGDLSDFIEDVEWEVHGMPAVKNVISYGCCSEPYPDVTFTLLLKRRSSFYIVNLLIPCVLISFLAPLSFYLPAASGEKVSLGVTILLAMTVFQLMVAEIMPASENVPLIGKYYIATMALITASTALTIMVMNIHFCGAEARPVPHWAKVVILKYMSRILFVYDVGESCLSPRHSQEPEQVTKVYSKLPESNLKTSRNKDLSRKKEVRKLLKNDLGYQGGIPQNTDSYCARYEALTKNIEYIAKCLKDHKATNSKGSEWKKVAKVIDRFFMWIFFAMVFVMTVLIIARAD
Sequence of alpha9/alpha10 nicotinic receptor (Q9JLB5 25-447): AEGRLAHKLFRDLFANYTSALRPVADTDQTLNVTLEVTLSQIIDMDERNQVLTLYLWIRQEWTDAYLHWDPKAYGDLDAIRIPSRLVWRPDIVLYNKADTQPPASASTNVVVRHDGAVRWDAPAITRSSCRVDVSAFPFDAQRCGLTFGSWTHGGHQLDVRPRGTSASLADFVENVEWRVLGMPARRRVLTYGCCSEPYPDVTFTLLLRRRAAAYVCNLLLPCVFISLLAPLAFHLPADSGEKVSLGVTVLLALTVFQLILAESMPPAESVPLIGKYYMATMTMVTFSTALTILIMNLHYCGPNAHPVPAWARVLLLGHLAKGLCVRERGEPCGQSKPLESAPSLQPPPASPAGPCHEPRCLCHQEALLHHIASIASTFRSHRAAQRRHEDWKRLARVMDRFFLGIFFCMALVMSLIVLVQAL

[4] = Follow-Up (Change from Baseline), 25 mg/d, N = 100
[5] = Follow-Up (Change from Baseline), 50 mg/d, N = 95
[6] = Follow-Up (Change from Baseline), 75 mg/d, N = 89
[7] = Week 16 Visit (Change from Baseline), 25 mg/d, N = 89
[8] = Week 16 Visit (Change from Baseline), 50 mg/d, N = 80
[9] = Week 16 Visit (Change from Baseline), 75 mg/d, N = 64

CC1(C)CC(C)(C)CC(C)(N)C1 [Neramexane, 1-amino-1,3,3,5,5-pentamethylcyclohexane]
TI Sleep item 12/5: Prevented (%) ([1]; Baseline, 25 mg/d, N = 106): 12.3% | TI Sleep item 12/5: Prevented n ([1]; Baseline, 25 mg/d, N = 106): 13 | TI Sleep item 12/5: affected (%) ([1]; Baseline, 25 mg/d, N = 106): 64.2% | TI Sleep item 12/5: affected n ([1]; Baseline, 25 mg/d, N = 106): 68 | TI Sleep item 12/5: no effect (%) ([1]; Baseline, 25 mg/d, N = 106): 23.6% | TI Sleep item 12/5: no effect n ([1]; Baseline, 25 mg/d, N = 106): 25 | TI Sleep item 12/5: Prevented (%) ([1]; Baseline, 50 mg/d, N = 106): 6.6% | TI Sleep item 12/5: Prevented n ([1]; Baseline, 50 mg/d, N = 106): 7 | TI Sleep item 12/5: affected (%) ([1]; Baseline, 50 mg/d, N = 106): 66.0% | TI Sleep item 12/5: affected n ([1]; Baseline, 50 mg/d, N = 106): 70 | TI Sleep item 12/5: no effect (%) ([1]; Baseline, 50 mg/d, N = 106): 27.4% | TI Sleep item 12/5: no effect n ([1]; Baseline, 50 mg/d, N = 106): 29 | TI Sleep item 12/5: Prevented (%) ([1]; Baseline, 75 mg/d, N = 99): 8.1% | TI Sleep item 12/5: Prevented n ([1]; Baseline, 75 mg/d, N = 99): 8 | TI Sleep item 12/5: affected (%) ([1]; Baseline, 75 mg/d, N = 99): 68.7% | TI Sleep item 12/5: affected n ([1]; Baseline, 75 mg/d, N = 99): 68 | TI Sleep item 12/5: no effect (%) ([1]; Baseline, 75 mg/d, N = 99): 23.2% | TI Sleep item 12/5: no effect n ([1]; Baseline, 75 mg/d, N = 99): 23 | TI Sleep item 12/5: Prevented (%) [1, 4]: 3.0% | TI Sleep item 12/5: Prevented n [1, 4]: 3 | TI Sleep item 12/5: affected (%) [1, 4]: 65.0% | TI Sleep item 12/5: affected n [1, 4]: 65 | TI Sleep item 12/5: no effect (%) [1, 4]: 32.0% | TI Sleep item 12/5: no effect n [1, 4]: 32 | TI Sleep item 12/5: Prevented (%) [1, 5]: 1.1% | TI Sleep item 12/5: Prevented n [1, 5]: 1 | TI Sleep item 12/5: affected (%) [1, 5]: 57.9% | TI Sleep item 12/5: affected n [1, 5]: 55 | TI Sleep item 12/5: no effect (%) [1, 5]: 41.1% | TI Sleep item 12/5: no effect n [1, 5]: 39 | TI Sleep item 12/5: Prevented (%) [1, 6]: 3.4% | TI Sleep item 12/5: Prevented n [1, 6]: 3 | TI Sleep item 12/5: affected (%) [1, 6]: 57.3% | TI Sleep item 12/5: affected n [1, 6]: 51 | TI Sleep item 12/5: no effect (%) [1, 6]: 39.3% | TI Sleep item 12/5: no effect n [1, 6]: 35 | TI Sleep item 12/5: Prevented (%) [1, 7]: 2.2% | TI Sleep item 12/5: Prevented n [1, 7]: 2 | TI Sleep item 12/5: affected (%) [1, 7]: 65.2% | TI Sleep item 12/5: affected n [1, 7]: 58 | TI Sleep item 12/5: no effect (%) [1, 7]: 32.6% | TI Sleep item 12/5: no effect n [1, 7]: 29 | TI Sleep item 12/5: Prevented (%) [1, 8]: 1.3% | TI Sleep item 12/5: Prevented n [1, 8]: 1 | TI Sleep item 12/5: affected (%) [1, 8]: 48.8% | TI Sleep item 12/5: affected n [1, 8]: 39 | TI Sleep item 12/5: no effect (%) [1, 8]: 50.0% | TI Sleep item 12/5: no effect n [1, 8]: 40 | TI Sleep item 12/5: Prevented (%) [1, 9]: 6.3% | TI Sleep item 12/5: Prevented n [1, 9]: 4 | TI Sleep item 12/5: affected (%) [1, 9]: 50.0% | TI Sleep item 12/5: affected n [1, 9]: 32 | TI Sleep item 12/5: no effect (%) [1, 9]: 43.8% | TI Sleep item 12/5: no effect n [1, 9]: 28 | improvement of sleep, question 12/5 of the structured tinnitus interview ([1]; final daily doses of 50 or 75 mg, after 16 weeks of double-blind treatment, distinct from placebo or low-dose (25 mg)): clear improvement of their sleep | improvement of tinnitus as measured by the TBF-12 [2]: clear improvement of their tinnitus | activity at alpha9/alpha10 nicotinic receptor [3]: activity as an alpha9/alpha10 nicotinic receptor antagonist
